Results taken from patent US20220249525A1, “Fatty Acid Compounds for Prevention and Treatment of Neurodegenerative Disorders” (T OMEGA AS, priority 2019, published 2022).

Test system: HCC827 cells
Test: Resazurin conversion cell viability/proliferation assay in HCC827 cells
Format: cell-based
Method: Non-small cell lung cancer cells, HCC827 (ATCC) were cultured in RPMI-1640 Glutamax medium (Sigma-Aldrich St. Louis, Mo., USA), under conventional culture conditions. Media was supplemented with 10% Fetal Bovine Serum (FBS), 1% glutamine and 1% streptomycin/penicillin (Sigma-Aldrich). HeLaNRF1/c4 reporter cells were cultured in Dulbecco's Modified Eagle's Medium (DMEM) supplemented with 10% FBS, 2 mM L-Glutamine, 100 u/ml penicillin/streptomycin (Sigma-Aldrich,). Incubation was done at 37° C. in 5% CO2.
Cell viability/proliferation was determined by the resazurin conversion assay. A total of 4000 cells were seeded in each of the 96-well plates in 100 μl of medium. After 3 hours of incubation, 100 μl of fresh medium with respective concentration of the desired compound or controls were added. Resazurin solution (Sigma-Aldrich) was added (10%, v/v in PBS) after 1 or 3 day treatment, followed by 3 hour incubation at 37° C. and 5% CO2. Resazurin fluorescence (excitation, 540 nm; emission, 590 nm) was measured and measurements were corrected for background signals. […] Relative viability was calculated from percent fluorescence relative to DMSO-treated control wells.

CCCCCCCCCCCCCCNCC(=O)O [N-TTA, N-tetradecylglycine]
dose-dependent pattern of antiproliferative effects (HCC827 cells, three different concentrations): dose-dependent pattern of antiproliferative effects was found | overall effects on cell viability and mitochondrial function (summary) (cultured cells, relatively high dosage): cytotoxic effects
